Results taken from patent US20180215727A1, “LYSYL OXIDASE-LIKE 2 INHIBITORS AND USES THEREOF” (PharmAkea, Inc., priority 2015, published 2018).
Where a name gives a salt, the structure may show the parent alone.

target: T1, human LOXL2 (Homo sapiens, UniProt Q9Y4K0); assay: Human LOXL2 Amine Oxidase Activity Assay (Amplex Red fluorescence); assay type: biochemical; conditions: concentrated conditioned media from CHO cells stably expressing human LOXL2, test compound incubated 2 h at 37° C., pH8, DAP substrate
T1 construct: expressed in transfected cells; secreted protein in 10-20x concentrated conditioned media
T1 sequence (Q9Y4K0 26-774): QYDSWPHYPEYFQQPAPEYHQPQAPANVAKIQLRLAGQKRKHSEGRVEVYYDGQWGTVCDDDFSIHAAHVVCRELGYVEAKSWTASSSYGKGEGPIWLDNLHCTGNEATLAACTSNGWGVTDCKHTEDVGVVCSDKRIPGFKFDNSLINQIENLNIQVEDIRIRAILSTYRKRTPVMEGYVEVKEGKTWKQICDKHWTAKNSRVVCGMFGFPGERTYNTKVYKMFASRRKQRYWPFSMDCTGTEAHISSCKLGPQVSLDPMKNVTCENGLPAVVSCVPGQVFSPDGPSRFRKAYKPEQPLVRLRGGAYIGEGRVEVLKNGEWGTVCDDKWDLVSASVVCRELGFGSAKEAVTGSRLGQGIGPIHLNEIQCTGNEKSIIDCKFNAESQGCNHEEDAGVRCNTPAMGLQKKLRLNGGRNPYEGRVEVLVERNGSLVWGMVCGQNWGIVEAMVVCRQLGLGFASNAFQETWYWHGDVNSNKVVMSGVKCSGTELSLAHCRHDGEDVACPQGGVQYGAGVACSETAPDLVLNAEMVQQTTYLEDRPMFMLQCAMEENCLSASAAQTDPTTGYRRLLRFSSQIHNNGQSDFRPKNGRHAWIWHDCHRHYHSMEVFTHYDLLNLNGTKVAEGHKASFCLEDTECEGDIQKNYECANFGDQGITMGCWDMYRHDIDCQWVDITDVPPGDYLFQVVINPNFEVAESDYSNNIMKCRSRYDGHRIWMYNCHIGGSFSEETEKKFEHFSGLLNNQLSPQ
Method: Example B-1: Human LOXL2 Amine Oxidase Activity Assay
LOXL2 amine oxidase activity is evaluated by measuring Amplex Red fluorescence using 10-20× concentrated conditioned media from CHO cells stably expressing human LOXL2. To assay for amine oxidase activity, 10 μL of the concentrated conditioned media is incubated with 2 μL of test compound in DMSO and 73 μL Assay Buffer (50 mM Borate Buffer, pH8) for 2 h at 37° C. After the 2 h incubation, 5 μl of 10 mM 1,5-Diaminopentane (DAP) diluted in Assay Buffer and 10 μl of Amplex Red Mix (8.5 μl Assay Buffer+0.5 μl of 10 mM Amplex Red+1 μl of 500 U/ml Horseradish Peroxidase) are added and the plate mixed and immediately placed on the FlexStaion for fluorescence measurements. Fluorescence is read in kinetic mode every 2 min for 1 hour at excitation=544 and emission=590. The amine oxidase activity is calculated from the slope of the linear portion of the curve.

IC50 [nM] | SMILES
< 300 | NCc1cc(=O)c2ccc(OCc3ccc(C(F)(F)F)cc3)cc2o1 [Compound 1-62, 2-(Aminomethyl)-7-((4-(trifluoromethyl)benzyl)oxy)-4H-chromen-4-one hydrochloride]
> 1000 | C#Cc1cccc2c(=O)cc(CN)oc12 [Compound 1-51, 2-(Aminomethyl)-8-ethynyl-4H-chromen-4-one hydrochloride]
< 300 | NCc1cc(=O)c2ccc(OCc3cn(-c4ccccc4)nn3)cc2o1 [Compound 1-47, 2-(Aminomethyl)-7-((1-phenyl-1H-1,2,3-triazol-4-yl)methoxy)-4H-chromen-4-one hydrochloride]
< 300 | NCc1cc(=O)c2ccc(Nc3cccc(C(=O)Nc4ccccc4)c3)cc2o1 [Compound 1-49, 3-((2-(Aminomethyl)-4-oxo-4H-chromen-7-yl)amino)-N-phenylbenzamide hydrochloride]
300 to 1000 | NCc1cc(=O)c2cccc(OCC(=O)Nc3ccccc3)c2o1 [Compound 1-57, 2-((2-(Aminomethyl)-4-oxo-4H-chromen-8-yl)oxy)-N-phenylacetamide hydrochloride]
< 300 | NCc1cc(=O)c2ccc(N3CCN(c4ccccc4)CC3)cc2o1 [Compound 1-40, 2-(Aminomethyl)-7-(4-phenylpiperazin-1-yl)-4H-chromen-4-one hydrochloride]
< 300 | NCc1cc(=O)c2ccc(N3CCN(C(=O)c4ccccc4)CC3)cc2o1 [Compound 1-41, 2-(Aminomethyl)-7-(4-benzoylpiperazin-1-yl)-4H-chromen-4-one hydrochloride]
300 to 1000 | NCc1cc(=O)c2cccc(OCc3ccccc3)c2o1 [Compound 1-54, 2-(Aminomethyl)-8-(benzyloxy)-4H-chromen-4-one hydrochloride]
300 to 1000 | NCc1cc(=O)c2ccc(O)cc2o1 [Compound 1-43, 2-(Aminomethyl)-7-hydroxy-4H-chromen-4-one hydrochloride]
< 300 | COc1ccc(COc2ccc3c(=O)cc(CN)oc3c2)cc1 [Compound 1-64, 2-(Aminomethyl)-7-((4-methoxybenzyl)oxy)-4H-chromen-4-one]
300 to 1000 | NCc1cc(=O)c2cccc(Br)c2o1 [Compound 1-50, 2-(Aminomethyl)-8-bromo-4H-chromen-4-one hydrochloride]
300 to 1000 | NCc1cc(=O)c2cccc(O)c2o1 [Compound 1-52, 2-(Aminomethyl)-8-hydroxy-4H-chromen-4-one hydrochloride]

The remaining lines, values behind:

SMILES | IC50 [nM]
NCc1cc(=O)c2cc(C(=O)N3CCC(C(=O)O)C3)ccc2o1 (single isomer, unassigned) [Compound 1-38, (R) or (S)-1-(2-(Aminomethyl)-4-oxo-4H-chromene-6-carbonyl)pyrrolidine-3-carboxylic Acid hydrochloride] | > 1000
NCc1cc(=O)c2cc(-c3ccccc3)ccc2o1 [Compound 1-6, 2-(Aminomethyl)-6-phenyl-4H-chromen-4-one hydrochloride] | < 300
CC(C)COc1ccc2c(=O)cc(CN)oc2c1 [Compound 1-44, 2-(Aminomethyl)-7-isobutoxy-4H-chromen-4-one hydrochloride] | < 300
Cn1cc(-c2ccc3oc(CN)cc(=O)c3c2)nn1 [Compound 1-13, 2-(Aminomethyl)-6-(1-methyl-1H-1,2,3-triazol-4-yl)-4H-chromen-4-one hydrochloride] | < 300
NCc1cc(=O)c2cc(C(=O)N3CCC(C(=O)O)C3)ccc2o1 (single isomer, unassigned) [Compound 1-37, (R) or (S)-1-(2-(Aminomethyl)-4-oxo-4H-chromene-6-carbonyl)pyrrolidine-3-carboxylic Acid hydrochloride] | > 1000
NCc1cc(=O)c2cc(Br)ccc2o1 [Compound 1-1, 2-(Aminomethyl)-6-bromo-4H-chromen-4-one hydrochloride] | < 300
CN(C)C(=O)Cn1cc(-c2ccc3oc(CN)cc(=O)c3c2)nn1 [Compound 1-17, 2-(4-(2-(Aminomethyl)-4-oxo-4H-chromen-6-yl)-1H-1,2,3-triazol-1-yl)-N,N-dimethylacetamide hydrochloride] | < 300
COC(=O)[C@@H]1CCN(C(=O)c2ccc3oc(CN)cc(=O)c3c2)C1 [Compound 1-24, Methyl (R)-1-(2-(aminomethyl)-4-oxo-4H-chromene-6-carbonyl)pyrrolidine-3-carboxylate hydrochloride] | 300 to 1000
Cn1cc(-c2ccc3oc(CN)cc(=O)c3c2)cn1 [Compound 1-12, 2-(Aminomethyl)-6-(1-methyl-1H-pyrazol-4-yl)-4H-chromen-4-one hydrochloride] | < 300
NCc1cc(=O)c2cc(C(=O)N3C[C@@H](O)[C@H](F)C3)ccc2o1 (racemic) [Compound 1-25, Racemic-trans-2-(aminomethyl)-6-(3-fluoro-4-hydroxypyrrolidine-1-carbonyl)-4H-chromen-4-one hydrochloride] | 300 to 1000
NCc1cc(=O)c2ccc(Oc3ccccc3)cc2o1 [Compound 1-68, 2-(Aminomethyl)-7-phenoxy-4H-chromen-4-one hydrochloride] | < 300
NCc1cc(=O)c2cc(-c3cn(CCO)nn3)ccc2o1 [Compound 1-16, 2-(Aminomethyl)-6-(1-(2-hydroxyethyl)-1H-1,2,3-triazol-4-yl)-4H-chromen-4-one hydrochloride] | 300 to 1000
CC(C)(O)C#Cc1ccc2oc(CN)cc(=O)c2c1 [Compound 1-4, 2-(Aminomethyl)-6-(3-hydroxy-3-methylbut-1-yn-1-yl)-4H-chromen-4-one hydrochloride] | < 300
NCc1cc(=O)c2cc(N3CC[C@H](O)C3)ccc2o1 [Compound 1-20, (S)-2-(Aminomethyl)-6-(3-hydroxypyrrolidin-1-yl)-4H-chromen-4-one hydrochloride] | 300 to 1000
NCc1cc(=O)c2cc(OCC(=O)O)ccc2o1 [Compound 1-34, 2-((2-(Aminomethyl)-4-oxo-4H-chromen-6-yl)oxy)acetic acid hydrochloride] | 300 to 1000
NCc1cc(=O)c2cc(-c3cn(Cc4ccccc4)nn3)ccc2o1 [Compound 1-15, 2-(Aminomethyl)-6-(1-benzyl-1H-1,2,3-triazol-4-yl)-4H-chromen-4-one hydrochloride] | < 300
CN(C)C(=O)c1ccc2oc(CN)cc(=O)c2c1 [Compound 1-18, 2-(Aminomethyl)-N,N-dimethyl-4-oxo-4H-chromene-6-carboxamide hydrochloride] | > 1000
NCc1cc(=O)c2cc(C(=O)NCCn3cncn3)ccc2o1 [Compound 1-21, N-(2-(1H-1,2,4-Triazol-1-yl)ethyl)-2-(aminomethyl)-4-oxo-4H-chromene-6-carboxamide hydrochloride] | 300 to 1000
C#Cc1ccc2oc(CN)cc(=O)c2c1 [Compound 1-3, 2-(Aminomethyl)-6-ethynyl-4H-chromen-4-one hydrochloride] | < 300
NCc1cc(=O)c2ccc(OCc3ccccc3)cc2o1 [Compound 1-29, 2-(Aminomethyl)-7-(benzyloxy)-4H-chromen-4-one hydrochloride] | < 300
